Converted amounts (≈) assume the structure as drawn.
Tests used:
[1] = biological target: T1, Aspartate α-decarboxylase (ADC) (Helicobacter pylori, UniProt P56065); assay: HPLC measurement of β-alanine produced from L-aspartate by purified 6xHis-tagged ADC; type: biochemical
T1 construct: gene panD; recombinant 6xHis-tagged ADC, 117 amino acids for ADC plus six for the His-tag (from H. pylori ATCC 43504)

[2] = tested on: T2, Acinetobacter baumannii ATCC 19606; assay: microbe, parasite or virus in culture; design: species or system bacterial species; broth microdilution MIC in Mueller-Hinton broth, visible growth; conditions: Acinetobacter baumannii, ATCC19606, 20 h
T2 construct: ATCC 19606
Description: (§1) Assessment of the spectrum of activity of malonic acid The spectrum of activity of malonic acid was assessed by determining malonic acid MIC against eight other pathogenic bacterial species (A. baumannii ATCC 19606, B. cenocepacia ATCC BAA-245, E. coli ATCC 25922, E. faecium ATCC 27270, E. faecalis ATCC 19433, K. pneumoniae ATCC 10031, P. aeruginosa ATCC 27856, and S. aureus ATCC 25923) using broth microdilution method, according to the CLSI guidelines ([CLSI, 2018]). Malonic acid solution was serially diluted in Muller-Hinton broth (100 μL) to get concentrations ranging from 6 to 0.19 mg/mL. The inoculum was prepared to be equivalent to 0.5 McFarland standard (containing approximately 1–2 × 10^8 CFU/mL with most species) and was further diluted 1:10 (to get a concentration of 10^7 CFU/mL). 10 μL of the diluted inoculum was transferred to each well to contain 5 × 10^5 CFU/mL. Plates were incubated at 37°C for 20 h. […] The experiment was carried out in triplicates. Malonic acid MIC was determined against other pathogenic species (A. baumannii ATCC 19606, B. cenocepacia ATCC BAA-245, E. coli ATCC 25922, E. faecium ATCC 27270, E. faecalis ATCC 19433, K. pneumoniae ATCC 10031, P. aeruginosa ATCC 27856, and S. aureus ATCC 25923) by the broth microdilution method.

[3] = tested on: T3, Burkholderia cepacia ATCC BAA-245; assay: microbe, parasite or virus in culture; design: species or system bacterial species; broth microdilution MIC in Mueller-Hinton broth, visible growth; conditions: Burkholderia cepacia, ATCCBAA245, 20 h
T3 construct: ATCC BAA-245
Description: as §1

[4] = tested on: T4, Enterococcus faecalis ATCC 19433; assay: microbe, parasite or virus in culture; design: species or system bacterial species; broth microdilution MIC in Mueller-Hinton broth, visible growth; conditions: Enterococcus faecalis, ATCC19433, 20 h
T4 construct: ATCC 19433
Description: as §1

[5] = tested on: T5, Enterococcus faecium ATCC 27270; assay: microbe, parasite or virus in culture; design: species or system bacterial species; broth microdilution MIC in Mueller-Hinton broth, visible growth; conditions: Enterococcus faecium, ATCC27270, 20 h
T5 construct: ATCC 27270
Description: as §1

[6] = tested on: T6, Escherichia coli ATCC 25922; assay: microbe, parasite or virus in culture; design: species or system bacterial species; broth microdilution MIC in Mueller-Hinton broth, visible growth; conditions: Escherichia coli, ATCC25922, 20 h
T6 construct: ATCC 25922
Description: as §1

[7] = tested on: T7, Klebsiella pneumoniae ATCC 10031; assay: microbe, parasite or virus in culture; design: species or system bacterial species; broth microdilution MIC in Mueller-Hinton broth, visible growth; conditions: Klebsiella pneumoniae, ATCC10031, 20 h
T7 construct: ATCC 10031
Description: as §1

[8] = tested on: T8, Pseudomonas aeruginosa ATCC 27856; assay: microbe, parasite or virus in culture; design: species or system bacterial species; broth microdilution MIC in Mueller-Hinton broth, visible growth; conditions: Pseudomonas aeruginosa, ATCC27856, 20 h
T8 construct: ATCC 27856
Description: as §1

[9] = tested on: T9, Staphylococcus aureus ATCC 25923; assay: microbe, parasite or virus in culture; design: species or system bacterial species; broth microdilution MIC in Mueller-Hinton broth, visible growth; conditions: Staphylococcus aureus, ATCC25923, 20 h
T9 construct: ATCC 25923
Description: as §1

[10] = tested on: T10, Helicobacter pylori ATCC 43504; assay: microbe, parasite or virus in culture; design: MIC against H. pylori by agar dilution and broth microdilution, microaerophilic, visible growth; conditions: ATCC43504, 72 h
T10 construct: ATCC 43504
Description: (§2) The MIC of malonic acid was determined by agar dilution and broth microdilution methods, against H. pylori ATCC 43504 and H. pylori HPM001 strains. Malonic acid (Loba, India) was dissolved in distilled water to the desired concentration, sterilized by a […] syringe filter, and used within 72 h of preparation. Inocula for MIC testing were prepared by suspending colonies in saline to reach an optical density equivalent to 2.0 McFarland turbidity standard (approximately 1×10^7 to 1×10^8 CFU/mL) ([CLSI, 2015]). The culture media used in MIC determination were freshly prepared, according to the manufacturer’s instruction, and supplemented with 1% yeast extract (LabM, United Kingdom) to enhance bacterial growth ([Walsh and Moran, 1997]). MIC determination by broth microdilution method was carried out in 96-well round-bottom micro-titre plates. […] The MIC of malonic acid was determined by agar dilution and broth microdilution methods against H. pylori ATCC 43504 and H. pylori HPM001. […] No significant difference was recorded between the MIC of malonic acid against H. pylori ATCC 43504 and H. pylori HPM001 using either the agar (p = 0.8529) or the broth microdilution methods (p = 0.8784). There was also no significant difference between the mean MIC of malonic acid recorded against the tested strains by both methods (p = 0.54).

[11] = tested on: T11, Helicobacter pylori HPM001; assay: microbe, parasite or virus in culture; design: MIC against H. pylori by agar dilution and broth microdilution, microaerophilic, visible growth; conditions: HPM001, 72 h
T11 construct: HPM001
Description: as §2

T1 sequence (P56065 1-24): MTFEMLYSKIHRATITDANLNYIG
T1 sequence (P56065 25-117): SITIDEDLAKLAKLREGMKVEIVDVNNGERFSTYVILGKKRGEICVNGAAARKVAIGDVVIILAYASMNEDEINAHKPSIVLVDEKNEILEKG

Row | Compound | HPLC measurement of β-alanine produced from L-aspartate by purified 6xHis-tagged [1] | MIC [2] [µg/mL] | MIC [3] [µg/mL] | MIC [4] [µg/mL] | MIC [5] [µg/mL] | MIC [6] [µg/mL] | MIC [7] [µg/mL] | MIC [8] [µg/mL] | MIC [9] [µg/mL] | MIC [10] [µg/mL] | MIC [11] [µg/mL]
1 | NC(CC(=O)O)C(=O)O [L-aspartate, 2-amino-butanedioic acid] | assaying β-alanine, the product of the enzymatic action of recombinant H. pylori 6x-His-tagged ADC on aspartate | – | – | – | – | – | – | – | – | – | –
2 | O=C(O)CC(=O)O [MA, propanedioic acid] | – | 750 (≈ 7.21 mM) | 1000 ± 350 (≈ 9.61 mM) | 625 ± 180 (≈ 6.01 mM) | 1000 ± 350 (≈ 9.61 mM) | 750 (≈ 7.21 mM) | 1250 ± 350 (≈ 12 mM) | 625 ± 180 (≈ 6.01 mM) | 750 (≈ 7.21 mM) | 625 ± 180 (≈ 6.01 mM) | 750 (≈ 7.21 mM)
